Test results as given in US9695155B2, “Herbicidal substituted pyrimidinyloxy benzene compounds” (E. I. DU PONT DE NEMOURS AND COMPANY, priority 2013, dated 2017).

How the values were obtained:
[1] = tested on: pigweed; test: Test A preemergence; assay type: in vivo, Amaranthus retroflexus
Procedure, shortened: (§1)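 Compounds in non-phytotoxic solvent with surfactant applied as soil spray preemergence, or postemergence to plants 2-10 cm at one- to two-leaf stage, in loam/sand. After approximately 10 days in greenhouse, injury rated visually versus untreated controls, 0 (no effect) to 100 (complete control).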

[2] = tested on: large (Lg) crabgrass; test: Test C postemergence; assay type: in vivo, Digitaria sanguinalis; settings: Digitaria sanguinalis, post-emergence
Procedure, shortened: (§2)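 Seeds were sown in loam–sand blend and sprayed preemergence, while plants at 1- to 4-leaf stage (2–18 cm) in peat-based medium received postemergence sprays; test chemicals were formulated in a non-phytotoxic solvent with surfactant. After 13–15 days in a greenhouse, injury was rated visually against controls, 0 (no effect) to 100 (complete control).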

[3] = tested on: giant foxtail; test: Test A preemergence; assay type: in vivo, Setaria faberii
Procedure, shortened: as §1

[4] = tested on: waterhemp; test: Test C postemergence; assay type: in vivo, Amaranthus rudis
Procedure, shortened: as §2

[5] = tested on: galium; test: Test C postemergence; assay type: in vivo, Galium aparine; settings: Galium, post-emergence
Procedure, shortened: as §2

[6] = tested on: lambsquarters; test: Test C postemergence; assay type: in vivo, Chenopodium album
Procedure, shortened: as §2

[7] = tested on: oilseed rape; test: Test C postemergence; assay type: in vivo, Brassica napus
Procedure, shortened: as §2

[8] = tested on: barnyardgrass; test: Test C postemergence; assay type: in vivo, Echinochloa crus-galli; settings: Echinochloa crus-galli, post-emergence
Procedure, shortened: as §2

[9] = tested on: barnyardgrass; test: Test A preemergence; assay type: in vivo, Echinochloa crus-galli
Procedure, shortened: as §1

[10] = tested on: pigweed; test: Test A postemergence; assay type: in vivo, Amaranthus retroflexus; settings: Amaranthus retroflexus, post-emergence, 0 to 100 scale, 0 no effect, 100 complete control, read-out: Plant response rating, Pigweed
Procedure, shortened: as §1

[11] = tested on: johnsongrass; test: Test C postemergence; assay type: in vivo, Sorghum halepense
Procedure, shortened: as §2

[12] = tested on: wild oat; test: Test C postemergence; assay type: in vivo, Avena fatua
Procedure, shortened: as §2

[13] = tested on: blackgrass; test: Test C postemergence; assay type: in vivo, Alopecurus myosuroides; settings: Alopecurus myosuroides, post-emergence
Procedure, shortened: as §2

[14] = 31 g ai/ha, postemergence, visual rating, scale 0 to 100 (0 no effect, 100 complete control), 13 to 15 days

`N#Cc1cccc(Oc2ncc(Cl)cn2)c1-n1cc(C(F)F)cn1` [Compound 253, 3-(5-chloropyrimidin-2-yl)oxy-2-[4-(difluoromethyl)-1H-pyrazol-1-yl]benzonitrile] was tested, and the “Pigweed plant response rating (0 to 100 scale)” value ([1]; 125 g ai/ha) was 100, the pest or weed control at 31 g/ha ([1]; Amaranthus retroflexus, pre-emergence, 240 h, 31 g ai/ha, 0 to 100 scale where 0 is no effect and 100 is complete control, visual, approximately 10 days, read-out: Plant response rating, Pigweed) was 100% and the pest or weed control at 16 g/ha ([2]; 16 g ai/ha, postemergence, 0 is no effect, 100 is complete control, read-out: Plant response rating (0 to 100), Crabgrass, Large) was 5%. It also gave a pest or weed control at 31 g/ha ([2]; 31 g ai/ha, postemergence, visual rating, scale 0 to 100 (0 no effect, 100 complete control), 13 to 15 days, read-out: Crabgrass, Large plant response rating) of 5%, a pest or weed control at 125 g/ha ([2]; 125 g ai/ha, postemergence, visual rating, scale 0 to 100 (0 no effect, 100 complete control), read-out: Plant response rating, Crabgrass, Large) of 20% and a pest or weed control at 62 g/ha ([2]; Postemergence, 62 g ai/ha, scale 0 to 100 (0 no effect, 100 complete control), 13 to 15 days, read-out: Plant response rating, Crabgrass, Large) of 15%. The “Foxtail, Giant plant response rating (0 to 100 scale)” value ([3]; 125 g ai/ha) was 100, the pest or weed control at 31 g/ha ([3]; Setaria faberi, pre-emergence, 240 h, 31 g ai/ha, 0 to 100 scale where 0 is no effect and 100 is complete control, visual, approximately 10 days, read-out: Plant response rating, Foxtail, Giant) was 70% and the “Waterhemp plant response rating” value [4, 14] was 75. The pest or weed control at 16 g/ha ([4]; Amaranthus tuberculatus, post-emergence, 16 g ai/ha, postemergence, 0 is no effect, 100 is complete control, read-out: Plant response rating (0 to 100), Waterhemp) was 75%, the pest or weed control at 125 g/ha ([4]; Amaranthus tuberculatus, post-emergence, 125 g ai/ha, postemergence, visual rating, scale 0 to 100 (0 no effect, 100 complete control), read-out: Plant response rating, Waterhemp) was 85% and the pest or weed control at 62 g/ha ([4]; Amaranthus tuberculatus, post-emergence, Postemergence, 62 g ai/ha, scale 0 to 100 (0 no effect, 100 complete control), 13 to 15 days, read-out: Plant response rating, Waterhemp) was 80%. The pest or weed control at 16 g/ha ([5]; 16 g ai/ha, postemergence, 0 is no effect, 100 is complete control, read-out: Plant response rating (0 to 100), Galium) was 45%, the pest or weed control at 31 g/ha ([5]; 31 g ai/ha, postemergence, visual rating, scale 0 to 100 (0 no effect, 100 complete control), 13 to 15 days, read-out: Galium plant response rating) was 80% and the pest or weed control at 125 g/ha ([5]; 125 g ai/ha, postemergence, visual rating, scale 0 to 100 (0 no effect, 100 complete control), read-out: Plant response rating, Galium) was 100%. For the same compound, the pest or weed control at 62 g/ha ([5]; Postemergence, 62 g ai/ha, scale 0 to 100 (0 no effect, 100 complete control), 13 to 15 days, read-out: Plant response rating, Galium) was 80%, the “Lambsquarters plant response rating” value [6, 14] was 80 and the pest or weed control at 16 g/ha ([6]; Chenopodium album, post-emergence, 16 g ai/ha, postemergence, 0 is no effect, 100 is complete control, read-out: Plant response rating (0 to 100), Lambsquarters) was 30%. The pest or weed control at 125 g/ha ([6]; Chenopodium album, post-emergence, 125 g ai/ha, postemergence, visual rating, scale 0 to 100 (0 no effect, 100 complete control), read-out: Plant response rating, Lambsquarters) was 95%, the pest or weed control at 62 g/ha ([6]; Chenopodium album, post-emergence, Postemergence, 62 g ai/ha, scale 0 to 100 (0 no effect, 100 complete control), 13 to 15 days, read-out: Plant response rating, Lambsquarters) was 80% and the “Oilseed Rape plant response rating” value [7, 14] was 60. It also gave a plant injury at 16 g/ha ([7]; Brassica napus, post-emergence, 16 g ai/ha, postemergence, 0 is no effect, 100 is complete control, read-out: Plant response rating (0 to 100), Oilseed Rape) of 5%, a plant injury at 125 g/ha ([7]; Brassica napus, post-emergence, 125 g ai/ha, postemergence, visual rating, scale 0 to 100 (0 no effect, 100 complete control), read-out: Plant response rating, Oilseed Rape) of 80% and a plant injury at 62 g/ha ([7]; Brassica napus, post-emergence, Postemergence, 62 g ai/ha, scale 0 to 100 (0 no effect, 100 complete control), 13 to 15 days, read-out: Plant response rating, Oilseed Rape) of 10%. The pest or weed control at 16 g/ha ([8]; 16 g ai/ha, postemergence, 0 is no effect, 100 is complete control, read-out: Plant response rating (0 to 100), Barnyardgrass) was 5%, the pest or weed control at 31 g/ha ([8]; 31 g ai/ha, postemergence, visual rating, scale 0 to 100 (0 no effect, 100 complete control), 13 to 15 days, read-out: Barnyardgrass plant response rating) was 5% and the pest or weed control at 125 g/ha ([8]; 125 g ai/ha, postemergence, visual rating, scale 0 to 100 (0 no effect, 100 complete control), read-out: Plant response rating, Barnyardgrass) was 20%. The pest or weed control at 62 g/ha ([8]; Postemergence, 62 g ai/ha, scale 0 to 100 (0 no effect, 100 complete control), read-out: Plant response rating, Barnyardgrass) was 10%, the “Barnyardgrass plant response rating (0 to 100 scale, 0 is no effect, 100 is complete control)” value ([9]; 125 g ai/ha) was 100 and the pest or weed control at 31 g/ha ([9]; Echinochloa crus-galli, pre-emergence, 240 h, 31 g ai/ha, 0 to 100 scale where 0 is no effect and 100 is complete control, visual, approximately 10 days, read-out: Plant response rating, Barnyardgrass) was 50%. The pest or weed control at 31 g/ha ([10]; 31 g ai/ha) was 90%, the pest or weed control at 125 g/ha ([10]; 125 g ai/ha) was 100% and the “Johnsongrass plant response rating” value [11, 14] was 5. For the same compound, the pest or weed control at 16 g/ha ([11]; Sorghum halepense, post-emergence, 16 g ai/ha, postemergence, 0 is no effect, 100 is complete control, read-out: Plant response rating (0 to 100), Johnsongrass) was 0%, the pest or weed control at 125 g/ha ([11]; Sorghum halepense, post-emergence, 125 g ai/ha, postemergence, visual rating, scale 0 to 100 (0 no effect, 100 complete control), read-out: Plant response rating, Johnsongrass) was 10% and the pest or weed control at 62 g/ha ([11]; Sorghum halepense, post-emergence, Postemergence, 62 g ai/ha, scale 0 to 100 (0 no effect, 100 complete control), 13 to 15 days, read-out: Plant response rating, Johnsongrass) was 5%. For the same compound, the “Oat, Wild plant response rating” value [12, 14] was 0, the pest or weed control at 16 g/ha ([12]; Avena fatua, post-emergence, 16 g ai/ha, postemergence, 0 is no effect, 100 is complete control, read-out: Plant response rating (0 to 100), Oat, Wild) was 0% and the pest or weed control at 125 g/ha ([12]; Avena fatua, post-emergence, 125 g ai/ha, postemergence, visual rating, scale 0 to 100 (0 no effect, 100 complete control), read-out: Plant response rating, Oat, Wild) was 10%. For the same compound, the pest or weed control at 62 g/ha ([12]; Avena fatua, post-emergence, Postemergence, 62 g ai/ha, scale 0 to 100 (0 no effect, 100 complete control), 13 to 15 days, read-out: Plant response rating, Oat, Wild) was 10%, the pest or weed control at 16 g/ha ([13]; 16 g ai/ha, postemergence, 0 is no effect, 100 is complete control, read-out: Plant response rating (0 to 100), Blackgrass) was 0% and the pest or weed control at 31 g/ha ([13]; 31 g ai/ha, postemergence, visual rating, scale 0 to 100 (0 no effect, 100 complete control), 13 to 15 days, read-out: Blackgrass plant response rating) was 0%. For the same compound, the pest or weed control at 125 g/ha ([13]; 125 g ai/ha, postemergence, visual rating, scale 0 to 100 (0 no effect, 100 complete control), read-out: Plant response rating, Blackgrass) was 10% and the pest or weed control at 62 g/ha ([13]; Postemergence, 62 g ai/ha, scale 0 to 100 (0 no effect, 100 complete control), 13 to 15 days, read-out: Plant response rating, Blackgrass) was 0%.
